Measurements published in patent US20120022048A1, “Anti-proliferative substituted pyrazolo[3,4-d]pyrimidines derivatives (SPP) to inhibit immune activation, virus replication and tumor growth” (priority 2010, published 2012).

Columns and labels:
Format in all cases: cell-based
[1] = tested on: primary human CD4 T-lymphocytes; assay: Cell hyperproliferation in primary T cells (CFSE staining, mitotic index); details: for mitotic index %: % of not treated control (100%), day 10, HU 100 μM; for mitotic index % / anti-proliferative activity (in words): SPPs 10 μM, Imatinib 10 μM; for anti-proliferative activity (in words): compared with HU 100 μM, HU+ddI or untreated control; for Anti-proliferative capacity: class symbol, Table 6
Procedure: We built up an experimental model using primary T cells to study the activity of the compounds on induced hyperproliferation of cells, which is a characteristic of both chronic viral diseases and cancer including HIV and leukemia.
(§1) Unstimulated (quiescent/resting, day 0 to 5) primary human CD4 T-lymphocytes were obtained by magnetic bead separation from healthy, normal donors. After five days in culture, cells were activated with PHA (5 μg/ml) to induce hyperproliferation then, at day 7, IL-2 (20 U/ml) was added (stimulated, day 6 to 10). All available compounds were tested at a concentration of 10 μM. […] At day 10, cells were harvested. Proliferation of T cells, cultured as described above, was studied by staining the cells with carboxyfluorescein diacetate-succinimidyl ester (CFSE) at day 0 (immediately after infection). For data analysis, the mitotic index (M) was used, calculating the sum of mitotic events at each proliferation cycle. To extract a relative number, M was normalized to the total number of cells acquired using the equation M=Σ[(Xn(T)−Xn(T)/2^n)], that gives the number of mitotic events from the experimentally obtained values of the proportion of T cells under each division peak n (Xn) and the total T cells (T). To study the effect of the compounds on apoptosis T cells were cultured as described above and at day 10 cells were stained with Annexin V and 7-AAD, in order to determine the percentage of total apoptotic events.

[2] = tested on: primary human CD4 T-lymphocytes; assay: Apoptosis in primary CD4 T cells (Annexin V and 7-AAD staining); details: SPPs 10 μM; for apoptotic effect (in words): compared with HU 100 μM, HU+ddI or untreated control; for apoptosis %: total apoptotic events compared to untreated control, day 10, Imatinib 10 μM, HU 100 μM, ddI 2 μM
Procedure: as §1
We determined the capacity of the compounds to affect the percentages of apoptotic events after 10 days of treatment in primary CD4 T cells.

HIV-1 NL 4.3 [3] = assay: HIV-1 replication in quiescent CD4 T cells (p24 Ag ELISA); details: for anti-HIV activity in quiescent cells (in words) / HIV quiescent cells (percentage p24 compared to the untreated control): SPPs 10 μM; for anti-HIV activity in quiescent cells (in words): compared with HU 100 μM, HU+ddI or untreated control; for Antiviral activity in quiescent cells: class symbol, Table 6; for HIV quiescent cells (percentage p24 compared to the untreated control): quiescent CD4 T cells, day 10, HU 100 μM, HU 100 μM+ddI 2 μM
Procedure: Unstimulated (quiescent/resting, day 0 to 5) human CD4 T-lymphocytes, obtained by magnetic bead separation from healthy, normal donors, were infected with HIV-1 NL 4.3. After five days in culture, cells were stimulated with PHA (5 μg/ml) to induce proliferation, and then, at day 7, IL-2 (20 U/ml) was added (stimulated, day 6 to 10). All available compounds were tested at a concentration of 10 μM. HU 100 μM and HU 100 μM+ddI 2 μM were also employed as comparators and the negative control was left untreated. At day 10, cells and supernatants were harvested and HIV-1 p24 Ag was measured by ELISA. HIV replication was expressed as percentage p24 compared to the untreated control.

HIV-1 NL 4.3 [4] = assay: HIV-1 replication in activated T cells (PBMC, p24 Ag ELISA); details: for HIV activated cells (% p24 compared to not treated control): activated T cells, 7 days, SPPs and Imatinib 10 μM, HU 100 μM, ddI 2 μM; for Antiviral activity in activated cells: class symbol, Table 6; for anti-HIV activity in activated T cells (in words): SPPs 10 μM, compared with HU 100 μM, HU+ddI or untreated control
Procedure: The experimental setup described below allows us to detect direct antiviral activity of a compound.
Human PBMC, obtained from healthy, normal donors, were stimulated for two days with PHA 5 μg/ml. Then cells were infected with HIV-1 NL 4.3, IL-2 was added (20 U/ml), cells were plated (10^5 cells per well in 200 μl) and drug treatment started. […] The control was left untreated. After 7 days of incubation at 37° C. supernatants were harvested and HIV-1 p24 Ag was measured by ELISA.

SMILES | mitotic index % [1] | anti-proliferative activity (in words) [1] | Anti-proliferative capacity [1] | apoptotic effect (in words) [2] | apoptosis % [2] | anti-HIV activity in quiescent cells (in words) (HIV-1 NL 4.3 [3]) | Antiviral activity in quiescent cells (HIV-1 NL 4.3 [3]) | HIV quiescent cells (percentage p24 compared to the untreated control) (HIV-1 NL 4.3 [3]) | HIV activated cells (% p24 compared to not treated control) (HIV-1 NL 4.3 [4]) | Antiviral activity in activated cells (HIV-1 NL 4.3 [4]) | anti-HIV activity in activated T cells (in words) (HIV-1 NL 4.3 [4]) | inhibition at 10 µM ([1]; Homo sapiens, T-lymphocyte, read-out: decrease/inhibition of cell proliferation compared to not treated control)
CCSc1nc(NCCc2ccccc2)c2cnn(CC(Cl)c3ccccc3)c2n1 (centres unmarked) [VS1-026] | 24.9 ± 16.6% | equal to or a little less anti-proliferative than HU | +++ (excellent (+++, greater than 70% activity)) | not proapoptotic | 135.3 ± 15.7% | slightly less potent against HIV | ++ (good (++, 50 to 70% activity)) | 29.3 ± 6.9% | 19.6 ± 12.6% | +++ (excellent (+++, greater than 70% activity)) |  | 
CSc1nc(NCc2ccc(F)cc2)c2cnn(CC(Cl)c3ccccc3)c2n1 (centres unmarked) [VS1-017] | 34.5 ± 6.7% | poor activity |  |  | 130.0 ± 19.3% |  |  | 38.7 ± 44.5% | 63.4 ± 31.2% |  | poor activity | 
CSc1nc(NCc2ccccc2Cl)c2cnn(CC(Cl)c3ccccc3)c2n1 (centres unmarked) [VS1-036] | 12.0 ± 6.4% | greater or equal to that of 100 μM HU | +++ (excellent (+++, greater than 70% activity)) | did not induce apoptosis | 139.3 ± 41.6% | effective against HIV | +++ (excellent (+++, greater than 70% activity)) | 14.5 ± 4.0% | 22.1 ± 5.7% | +++ (excellent (+++, greater than 70% activity)) | effective against HIV | 
CSc1nc(NCc2ccccc2)c2cnn(C=Cc3ccccc3)c2n1 [VS1-019] | 81.3 ± 18.9% | poor activity |  |  | 94.0 ± 11.2% |  |  | 46.7 ± 31.3% | 89.3 ± 25.5% |  | poor activity | 
BrC(Cn1ncc2c(N3CCCCCC3)ncnc21)c1ccccc1 (centres unmarked) [VS1-018] | 42.4 ± 21.8% | poor activity |  | proapoptotic | 176.0 ± 22.5% |  |  | 11.5 ± 3.2% | 93.6 ± 28.3% |  | poor activity | 
CSc1nc(Nc2cccc(Cl)c2)c2cnn(C=Cc3ccccc3)c2n1 [VS1-016] | 71.2 ± 5.8% |  |  |  | 88.0 ± 12.7% |  |  | 23.6 ± 22.1% | 21.0 ± 6.3% |  | better anti-HIV activity than HU | 
CCCCNc1nc(SC)nc2c1cnn2CC(Cl)c1ccccc1 (centres unmarked) [VS1-024] | 45.5 ± 10.9% | equal to or a little less anti-proliferative than HU | ++ (good (++, 50 to 70% activity)) | not proapoptotic | 126.7 ± 23.9% | slightly less potent against HIV | +++ (excellent (+++, greater than 70% activity)) | 24.3 ± 9.4% | 10.1 ± 7.4% | +++ (excellent (+++, greater than 70% activity)) |  | 
CCSc1nc(Nc2cccc(Cl)c2)c2cnn(CC(Cl)c3ccccc3)c2n1 (centres unmarked) [VS1-027] | 2.4 ± 1.5% | good anti-proliferative capacity (superior to 100 μM HU) | +++ (excellent (+++, greater than 70% activity)) | no more apoptotic than HU | 90.1 ± 33.8% | good anti-HIV activity | +++ (excellent (+++, greater than 70% activity)) | 2.7 ± 1.6% | 12.0 ± 9.5% | +++ (excellent (+++, greater than 70% activity)) | good anti-HIV activity | 
CCCNc1nc(SCCN2CCOCC2)nc2c1cnn2CC(Cl)c1ccccc1 (centres unmarked) [VS1-025] | 61.6 ± 12.7% | poor activity |  |  | 139.3 ± 20.8% |  |  | 23.6 ± 14.5% | 74.2 ± 31.7% |  | poor activity | 
C(=Cn1ncc2c(NCc3ccccc3)ncnc21)c1ccccc1 [VS1-013] | 85.6 ± 3.6% |  |  |  | 121.3 ± 14.1% |  |  | 63.3 ± 26.0% | 116.4 ± 21.1% |  |  | 
CCCCNc1ncnc2c1cnn2CC(Br)c1ccccc1 (centres unmarked) [VS1-006] | 54.0% | not effective |  |  |  |  |  | 17.8 ± 2.5% | 100.5 ± 26.4% |  | not effective | 
Cc1ccc(NC(=O)c2ccc(CN3CCN(C)CC3)cc2)cc1Nc1nccc(-c2cccnc2)n1 [Imatinib, reference compound] |  |  |  | no significant increases |  |  |  |  |  |  | comparable antiviral capacity | 62%
BrC(Cn1ncc2c(NC3CCCCC3)ncnc21)c1ccccc1 (centres unmarked) [VS1-007] | 87.0% | poor performance |  |  |  |  |  | 75.7 ± 18.8% | 70.6 ± 24.3% |  | no effect on HIV replication | 
